Test results taken from PMC12249711, “Comprehensive Evaluation of 1H-Isoindole-1,3(2H)-Dione Derivatives: Pharmacokinetic Studies and Analgesic Potential in Various Pain Models” (International Journal of Molecular Sciences, 2025).

Assays:
Type in all cases: in vivo, Albino Swiss mice
[1] = tested on: mice; assay: Formalin test; settings: vs vehicle; for Reduction of pain reaction (licking duration), neurogenic phase: phase I (0–5 min); for Reduction of pain response, inflammatory phase: phase II (15–30 min)
Description: The pain reaction was induced by intraplantar (i.pl.) injection of 20 μL of 2.5% formalin solution into the right hind paw of the mouse (n = 136). […] Time (in seconds) spent on licking or biting the injected hind paw in selected intervals, 0–5 min (neurogenic phase) and 15–30 min (inflammatory phase), was measured in each group and was an indicator of nociceptive behavior. The procedure was based on the method described by with some modifications by.

[2] = tested on: mice; assay: Glutamate-induced pain test; settings: vs vehicle
Description: Prior to the experimental procedure, individual mice were acclimatized in an observation chamber (n = 128). Thirty minutes before the test, the compounds under investigation were administered intraperitoneally (i.p.). A volume of 20 μL of a glutamate solution, containing 30 μmol per mouse paw, was subcutaneously injected into the ventral surface of the right hind paw to induce a pain response. Glutamate-induced nociception was assessed 15 min post-injection. The duration of time spent licking the injected paw was recorded using a chronometer and was interpreted as an indicator of nociception.

[3] = tested on: mice; assay: Streptozotocin-induced diabetic neuropathy, von Frey test (tactile allodynia); settings: diabetic (STZ) mice, 10 mg/kg i.p.; for Pain threshold after compound administration (von Frey): 30 min before the test; for Analgesic activity (von Frey): vs pre-drug threshold
Description: (§1) The induction of diabetes neuropathy in mice was achieved through the administration of streptozotocin (STZ), dissolved in PBS at a dose of 200 mg/kg in a constant volume of 0.1 mL/10 g of mouse body weight, intraperitoneally; (n = 50). Blood glucose levels were measured immediately prior to the administration of streptozotocin and 14 and 21 days following this administration in order to confirm the presence of hyperglycemia. For this purpose, 5 µL of blood was drawn from the tail vein of the mice using a strip glucose meter (AccuChek Active, Roche, Boulogne-Billancourt, France).
Furthermore, to assess the response to mechanical stimuli (i.e., tactile/mechanical) allodynia), the von Frey test was carried out with application of the electronic von Frey unit (Panlab, Cornellà de Llobregat, Spain) equipped with a fiber, the distal end of which was applied to the right hind paw of the mouse. The device automatically recorded the pressure force (in grams) applied until the paw withdrawal response occurred. In the absence of pain, an increase in the pressure value was observed. The force at which the animal withdrew its paw was considered the pain threshold for the mechanical stimulus. Measurements were taken before streptozotocin administration (in normoglycemic mice) and again 21 days later, both before and after compound administration, in diabetic mice (glucose level > 300 mg/dL) that had developed mechanical allodynia. On the day of the experiment, each mouse was placed in an observation chamber with a wire mesh bottom and was allowed to habituate for 1 h. After the habituation period, in order to obtain baseline values, each mouse was tested 3 times alternately in each hind paw, allowing at least 30 s between each measurement. Then, the mice were pretreated intraperitoneally with compound or vehicle, and 30 min later the animals were tested again and three measurements were taken, the mean of which was calculated to obtain the mean values after drug administration for each mouse. The anti-allodynic effect was defined as an increase in the pressure force value required to elicit a pain response, compared to the control group.

[4] = tested on: mice; assay: Streptozotocin-induced diabetic neuropathy, hot plate test (thermal hyperalgesia); settings: diabetic (STZ) mice, 10 mg/kg i.p.; for Analgesic activity (hot plate): vs pre-drug latency
Description: as §1
To assess increased sensitivity to thermal stimuli, we used a hot plate testing apparatus (Panlab/Harvard Apparatus, Cornellà de Llobregat, Spain), following the methodology originally described by. In this procedure, after determining the baseline pain response time, 30 min after drug administration, mice were placed on a hot plate maintained at 55 °C and monitored for pain-related behaviors such as licking their hind paws or jumping. To avoid potential damage to paw tissue, a time limit of 45 s was set.

SMILES	Reduction of pain reaction (licking duration), neurogenic phase ([1]; 5 mg/kg i.p.)	Reduction of pain reaction (licking duration), neurogenic phase ([1]; 10 mg/kg i.p.)	Reduction of pain reaction (licking duration), neurogenic phase ([1]; 20 mg/kg i.p.) [%]	Reduction of pain response, inflammatory phase ([1]; 5 mg/kg i.p.) [%]	Reduction of pain response, inflammatory phase ([1]; 10 mg/kg i.p.) [%]	Reduction of pain response, inflammatory phase ([1]; 20 mg/kg i.p.) [%]	Reduction of glutamate-induced pain reaction ([2]; 5 mg/kg i.p.) [%]	Reduction of glutamate-induced pain reaction ([2]; 10 mg/kg i.p.) [%]	Reduction of glutamate-induced pain reaction ([2]; 20 mg/kg i.p.) [%]	Pain threshold after compound administration (von Frey) [3] [g]	Analgesic activity (von Frey) [3] [%]	Pain response latency time after compound administration (hot plate, 55 °C) [4]	Analgesic activity (hot plate) [4] [%]
COc1ccccc1N1CCN(CC(O)CN2C(=O)c3ccccc3C2=O)CC1 (centres unmarked) [Compound F2]	did not attenuate the nociceptive response	44.6%	53	51	73	87	54.3	62.9	68.7	4.58 ± 0.29	39.4	30.36 s	49.33
O=C1c2ccccc2C(=O)N1CC(O)CN1CCN(c2ccccc2)CC1 (centres unmarked) [Compound F1]	did not attenuate the nociceptive response	44.9%	62.7	37	66	90	41.3	82.3	87.2	4.28 ± 0.32	48.6	25.59 ± 1.84 s	56.6
O=C1c2ccccc2C(=O)N1CC(O)CN1CCN(c2cccc(C(F)(F)F)c2)CC1 (centres unmarked) [Compound F3]	did not attenuate the nociceptive response	did not attenuate the nociceptive response	41.6	34.5	57.5	80.9		61	70	5.21 ± 0.32	81.13	24.24 ± 1.46 s	42.92
O=C1c2ccccc2C(=O)N1CC(O)CN1CCN(C(c2ccccc2)c2ccccc2)CC1 (centres unmarked) [Compound F4]	did not attenuate the nociceptive response	did not attenuate the nociceptive response	48.3		29.5	42			53.7	3.98 ± 0.23	38.29	did not affect the latency time	
